From US20130157858A1, “METHODS AND SYSTEMS USEFUL FOR C[…] WATERMILFOIL” (priority 2011, published 2013)

Experiments:
[1] = test system: hybrid milfoil population; conditions: hybrid milfoil population (B), 6 weeks following applications of various rates, FIG. 2; cited from earlier work
[2] = test system: auxin herbicide sensitive Eurasian milfoil biotype; conditions: Eurasian milfoil biotype (A), 6 weeks following applications of various rates, FIG. 2; cited from earlier work
[3] = test system: tolerant hybrid milfoil lineage from an Upper Midwest US lake; experiment: 14-day laboratory apical tissue assay, fluridone herbicide response (beta-carotene); assay type: in vivo, hybrid (Northern×Eurasian) watermilfoil; conditions: 14-day apical tissue assay, various rates of fluridone, compared with the susceptible reference Eurasian milfoil lineage (EWM), n=4, FIG. 3
Text: FIG. 3 depicts fluridone herbicide response of a tolerant hybrid milfoil lineage from an Upper Midwest US lake compared to response of a susceptible reference Eurasian milfoil lineage (EWM) in a 14-day laboratory apical tissue assay. […] Error bars are +1 standard deviation (n=4).

| Molecule | response in aboveground biomass (sensitivity/tolerance) [1] | response in aboveground biomass (sensitivity/tolerance) [2] | beta-carotene reduction [3] |
| --- | --- | --- | --- |
| O=C(O)COc1ccc(Cl)cc1Cl [2,4-d, 2,4-dichlorophenoxyacetic acid] | displaying auxin tolerance | sensitive |  |
| O=C(O)COc1nc(Cl)c(Cl)cc1Cl [triclopyr] | displaying auxin tolerance | sensitive |  |
| fluridone |  |  | less beta-carotene reduction for the tolerant hybrid lineage versus the reference Eurasian lineage |
